Laboratory results: patent US8536193B2, “Inhibitors of AKT activity” (Merck Sharp & Dohme Corp., priority 2008, dated 2013)

Key:
Akt2 kinase = Akt2 kinase (Homo sapiens (Human), UniProt P31751); assay: Akt kinase assay (HTRF, GSK-derived biotinylated peptide substrate); type: biochemical
Protocol: (§1) Activated Akt isoforms and pleckstrin homology domain deletion constructs were assayed utilizing a GSK-derived biotinylated peptide substrate. The extent of peptide phosphorylation was determined by Homogeneous Time Resolved Fluorescence (HTRF) using a lanthanide chelate (Lance)-coupled monoclonal antibody specific for the phosphopeptide in combination with a streptavidin-linked allophycocyanin (SA-APC) fluorophore which will bind to the biotin moiety on the peptide. When the Lance and APC are in proximity (i.e. bound to the same phosphopeptide molecule), a non-radiative energy transfer takes place from the Lance to the APC, followed by emission of light from APC at 665 nm.
(§2) Materials Required for the Assay:
(§3) A. Activated Akt isozyme or pleckstrin homology domain deleted construct
(§4) B. Akt peptide substrate: GSK3α (S21) Peptide #3928 biotin-[…] (SEQ.ID.NO.:15), Macromolecular Resources.
(§5) C. Lance labeled anti-phospho GSK3α monoclonal antibody (Cell Signaling Technology, clone #27).
(§6) D. SA-APC (Prozyme catalog no. PJ25S lot #896067).
(§7) E. Microfluor®B U Bottom Microtiter Plates (Dynex Technologies, Catalog no. 7205).
(§8) F. Discovery® HTRF Microplate Analyzer, Packard Instrument Company.
(§9) G. 100× Protease Inhibitor Cocktail (PIC): 1 mg/mL benzamidine, 0.5 mg/mL pepstatin, 0.5 mg/mL leupeptin, 0.5 mg/mL aprotinin.
(§10) H. 10× Assay Buffer: 500 mM HEPES, pH 7.5, 1% PEG, […], 1 mM EGTA, 1% BSA, 20 mM θ-Glycerol phosphate.
(§11) I. Quench Buffer: 50 mM HEPES pH 7.3, 16.6 mM EDTA, 0.1% BSA, 0.1% Triton X-100, 0.17 nM Lance labeled monoclonal antibody clone #27, 0.0067 mg/mL SA-APC
(§12) J. ATP/MgCl2 working solution: 1× Assay buffer, 1 mM DTT, 1×PIC, 125 mM KCl, 5% Glycerol, 25 mM MgCl2, 375 μM ATP
(§13) K. Enzyme working solution: 1× Assay buffer, 1 mM DTT, 1× PIC, 5% Glycerol, active Akt. The final enzyme concentrations were selected so that the assay was in a linear response range.
(§14) L. Peptide working solution: 1× Assay buffer, 1 mM DTT, 1× PIC, 5% Glycerol, 2 μM GSK3 biotinylated peptide #3928
(§15) The reaction is assembled by adding 16 μl, of the ATP/MgCl2 working solution to the appropriate wells of a 96-well microtiter plate. Inhibitor or vehicle (1.0 μL) is added followed by 10 μL of peptide working solution. The reaction is started by adding 13 μL of the enzyme working solution and mixing. The reaction is allowed to proceed for 50 min and then stopped by the addition of 60 μl, HTRF quench buffer. The stopped reactions were incubated at room temperature for at least 30 min and then read on the Discovery instrument.

Akt1 kinase = Akt1 kinase (Homo sapiens (Human), UniProt P31749); assay: as above; type: biochemical
Sequence of Akt1 kinase (P31749 whole entry): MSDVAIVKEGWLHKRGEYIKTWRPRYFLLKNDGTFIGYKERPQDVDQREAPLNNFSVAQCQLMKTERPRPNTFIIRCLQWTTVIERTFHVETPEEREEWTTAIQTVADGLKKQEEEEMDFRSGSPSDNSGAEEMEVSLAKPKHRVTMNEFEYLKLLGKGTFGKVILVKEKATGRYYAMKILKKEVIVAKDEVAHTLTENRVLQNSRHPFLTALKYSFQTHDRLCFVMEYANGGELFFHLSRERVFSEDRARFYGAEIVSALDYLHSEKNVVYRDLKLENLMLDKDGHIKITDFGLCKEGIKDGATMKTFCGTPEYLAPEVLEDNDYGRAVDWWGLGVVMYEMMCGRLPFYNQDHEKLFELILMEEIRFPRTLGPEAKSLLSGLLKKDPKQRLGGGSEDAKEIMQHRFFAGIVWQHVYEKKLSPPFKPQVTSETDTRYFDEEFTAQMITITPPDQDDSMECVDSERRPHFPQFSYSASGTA
Protocol: as §1, §2, §3, §4, §5, §6, §7, §8, §9, §10, §11, §12, §13, §14, §15

Sequence of Akt2 kinase (P31751 whole entry, the tested form may be a part, canonical isoform): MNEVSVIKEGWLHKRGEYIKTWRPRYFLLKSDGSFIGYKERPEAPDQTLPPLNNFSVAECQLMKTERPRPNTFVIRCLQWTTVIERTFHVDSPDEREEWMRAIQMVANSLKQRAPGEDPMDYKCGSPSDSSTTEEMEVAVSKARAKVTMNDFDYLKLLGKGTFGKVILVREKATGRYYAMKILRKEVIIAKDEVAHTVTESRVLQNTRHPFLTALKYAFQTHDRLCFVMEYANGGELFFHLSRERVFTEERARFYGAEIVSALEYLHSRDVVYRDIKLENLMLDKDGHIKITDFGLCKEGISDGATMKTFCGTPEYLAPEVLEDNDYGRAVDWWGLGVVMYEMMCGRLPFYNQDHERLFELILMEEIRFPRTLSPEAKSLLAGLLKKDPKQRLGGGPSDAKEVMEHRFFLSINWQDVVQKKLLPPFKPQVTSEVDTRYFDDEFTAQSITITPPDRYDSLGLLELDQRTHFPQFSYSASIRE

Compound | IC50 (Akt2 kinase) | IC50 (Akt1 kinase)
O=C(Cc1cccnc1)NC1(c2ccc(-c3nc4ccc5nnc(O)n5c4cc3-c3ccccc3)cc2)CCC1 [EXAMPLE 1-9, N-{1-[4-(1-hydroxy-8-phenyl[1,2,4]triazolo[4,3-a]-1,5-naphthylidin-7-yl)phenyl]cyclobutyl}-2-(3-pyridinyl)acetamide] | 200 nM | 39 nM
CC1(O)CC(N)(c2ccc(-c3nc4ccc5nnc(-c6nnc[nH]6)n5c4cc3-c3ccccc3)cc2)C1 (stereo not drawn) [EXAMPLE 7-26, cis-3-amino-1-methyl-3-{4-[8-phenyl-1-(4H-1,2,4-triazol-3-yl)[1,2,4]triazolo[4,3-a][1,5]naphthyridin-7-yl]phenyl}cyclobutanol] | 12.6 nM | 0.7 nM
C[C@]1(O)C[C@@](N)(c2ccc(-c3nc4ccc5nnc(C(F)F)n5c4cc3-c3ccccc3)cc2)C1 [EXAMPLE 10-4, trans-3-amino-3-{4-[1-(difluoromethyl)-8-phenyl[1,2,4]triazolo[4,3-a]-1,5-naphthyridin-7-yl]phenyl}-1-methylcyclobutanol] | 1.7 nM | 0.38 nM
NC1(c2ccc(-c3nc4ccc5nnc(C(F)F)n5c4cc3-c3ccccc3)cc2)CC(O)(C2CC2)C1 (stereo not drawn) [EXAMPLE 10-5, trans-3-amino-1-cyclopropyl-3-{4-[1-(difluoromethyl)-8-phenyl-[1,2,4]triazolo[4,3-a]-1,5-naphthyridin-7-yl]phenyl}cyclobutanol] | 2.2 nM | 0.34 nM

The next lines start with the values.

IC50 (Akt2 kinase) | IC50 (Akt1 kinase) | Compound
32 nM | 2.3 nM | NC1(c2ccc(-c3nc4ccc5nnc(-c6ccccc6)n5c4cc3-c3ccccc3)cc2)CCC1 [EXAMPLE 2-1, 1-[4-(1,8-diphenyl[1,2,4]triazolo[4,3-a]-1,5-naphthylidin-7-yl)phenyl]cyclobutanamine]
24 nM | 6.1 nM | Nc1nnc2ccc3nc(-c4ccc(C5(N)CCC5)cc4)c(-c4ccccc4)cc3n12 [EXAMPLE 3-1, 7-[4-(1-aminocyclobutyl)phenyl]-8-phenyl[1,2,4]triazolo[4,3-a]-1,5-naphthylidin-1-amine]
50 nM | 8.2 nM | Cc1nnc2ccc3nc(-c4ccc(C5(N)CCC5)cc4)c(-c4ccccc4)cc3n12 [EXAMPLE 4-1, 1-[4-(1-methyl-8-phenyl[1,2,4]triazolo[4,3-a]-1,5-naphthylidin-7-yl)phenyl]cyclobutanamine]
140 nM | 10 nM | NC1(c2ccc(-c3nc4ccc5nnc(-c6ccccc6)n5c4cc3-c3ccccc3)cc2)CC(F)(F)C1 [EXAMPLE 5-12, 1-[4-(1,8-diphenyl[1,2,4]triazolo[4,3-a]-1,5-naphthyridin-7-yl)phenyl]-3,3-difluorocyclobutanamine]
